Measurements reported in publication PMC6422671 (British Journal of Clinical Pharmacology, 2019).
Like-named read-outs stand apart in the source and are kept apart here.

How the values were obtained:
[1] = Urinary pharmacokinetics after single oral dose, phase I; type: in vivo, healthy men; conditions: male, human, urine
Description: Urine was collected for pharmacokinetic analyses before dosing (spot sample) and 0–3, 3–6, 6–9, 9–12, 12–24, 24–36 and 36–48 hours after dosing (pooled samples). Samples for determination of AZD4831 in urine were analysed by Covance Laboratories Ltd. (Harrogate, UK). […] This method was validated prior to sample analysis in the range 20–20 000 nmol L^−1 in urine, using a 25 μL sample aliquot.

serum uric acid = assay: Serum uric acid (urate), exploratory pharmacodynamic outcome; table data mean (standard deviation); type: in vivo, healthy men; conditions: for decrease in mean serum uric acid concentration: 48 hours after dosing
Excerpt: The primary objective of the study was to evaluate the safety and tolerability of AZD4831 in healthy volunteers.
Data are mean (standard deviation).

[2] = design: method as in E Michaëlsson et al., manuscript in preparation; conditions: ref E Michaëlsson et al., manuscript in preparation; cited from earlier work
myeloperoxidase = test system: myeloperoxidase; design: method as in E Michaëlsson et al., manuscript in preparation; conditions: in vitro, unpublished; ref E Michaëlsson et al., manuscript in preparation; cited from earlier work
[3] = test system: urate anion exchanger 1 (URAT1; SLC22A12); design: method as in E Michaëlsson et al., manuscript in preparation; conditions: in vitro; ref E Michaëlsson et al., manuscript in preparation; cited from earlier work
[4] = preclinical study in dogs; cited from earlier work
[5] = Adverse event monitoring, phase I single dose
Description: Safety assessments included adverse event (AE) monitoring, vital signs monitoring (systolic and diastolic blood pressure, pulse rate), electrocardiography, physical examinations and laboratory assessments (haematology, clinical chemistry and urinalysis).
The pharmacokinetic analysis set included all participants in the safety analysis set with evaluable pharmacokinetic data and no major protocol deviations. Analyses were performed using Statistical Analysis System (SAS) software, version 9.4. Descriptive statistics were not presented if there were fewer than 3 values available.

C[C@@H](N)c1cc(Cl)ccc1Cn1c(=S)[nH]c(=O)c2[nH]ccc21 [AZD4831]
CL renal ([1]; 5 mg, 5 mg fasted, geometric mean (CV), read-out: CLR (converted)): 252 mL/min
CL renal ([1]; 5 mg, 5 mg fasted, read-out: mean renal clearance (converted)): 257 mL/min
CL renal ([1]; 15 mg, 15 mg fasted, geometric mean (CV), read-out: CLR (converted)): 240 mL/min
CL renal ([1]; 45 mg, 45 mg fasted, geometric mean (CV), read-out: CLR (converted)): 162 mL/min
CL renal ([1]; 135 mg, 135 mg fasted, geometric mean (CV), read-out: CLR (converted)): 157 mL/min
CL renal ([1]; 405 mg, 405 mg fasted, geometric mean (CV), read-out: CLR (converted)): 132 mL/min
CL renal ([1]; 405 mg, 405 mg fasted, read-out: mean renal clearance (converted)): 148 mL/min
Urate (serum uric acid; 5 mg fasted, 24 h): 335.1 (75.2) µmol L^–1
Urate (serum uric acid; 5 mg fasted, 48 h): 293.2 (64.0) µmol L^–1
Urate (serum uric acid; 5 mg fasted, follow up): 326.3 (84.2) µmol L^–1
Urate (serum uric acid; 15 mg fasted, 24 h): 364.7 (35.3) µmol L^–1
Urate (serum uric acid; 15 mg fasted, 48 h): 331.6 (30.7) µmol L^–1
Urate (serum uric acid; 15 mg fasted, 72 h): 355.7 (25.4) µmol L^–1
Urate (serum uric acid; 15 mg fasted, 96 h): 366.5 (25.3) µmol L^–1
Urate (serum uric acid; 15 mg fasted, 120 h): 370.8 (40.4) µmol L^–1
Urate (serum uric acid; 15 mg fasted, follow up): 366.3 (47.1) µmol L^–1
Urate (serum uric acid; 45 mg fasted, 24 h): 361.7 (111.9) µmol L^–1
Urate (serum uric acid; 45 mg fasted, 48 h): 339.8 (113.0) µmol L^–1
Urate (serum uric acid; 45 mg fasted, 72 h): 362.1 (111.6) µmol L^–1
Urate (serum uric acid; 45 mg fasted, 96 h): 366.3 (112.8) µmol L^–1
Urate (serum uric acid; 45 mg fasted, 120 h): 382.6 (93.3) µmol L^–1
Urate (serum uric acid; 45 mg fasted, follow up): 397.6 (112.6) µmol L^–1
Urate (serum uric acid; 45 mg fed, 24 h): 296.4 (62.8) µmol L^–1
Urate (serum uric acid; 45 mg fed, 48 h): 283.0 (57.0) µmol L^–1
Urate (serum uric acid; 45 mg fed, 72 h): 313.2 (47.1) µmol L^–1
Urate (serum uric acid; 45 mg fed, 96 h): 316.0 (47.3) µmol L^–1
Urate (serum uric acid; 45 mg fed, 120 h): 316.5 (67.1) µmol L^–1
Urate (serum uric acid; 45 mg fed, follow up): 314.0 (77.9) µmol L^–1
Urate (serum uric acid; 135 mg fasted, 24 h): 344.3 (18.6) µmol L^–1
Urate (serum uric acid; 135 mg fasted, 48 h): 311.3 (18.6) µmol L^–1
Urate (serum uric acid; 135 mg fasted, 72 h): 339.2 (13.9) µmol L^–1
Urate (serum uric acid; 135 mg fasted, 96 h): 346.2 (25.0) µmol L^–1
Urate (serum uric acid; 135 mg fasted, 120 h): 365.9 (42.1) µmol L^–1
Urate (serum uric acid; 135 mg fasted, follow up): 370.3 (31.4) µmol L^–1
decrease in mean serum uric acid concentration (serum uric acid; 135 mg, 95% CI 29.15, 114.39, mean predose 383.0 (SD 47.5)): 71.77 µmol/L
Urate (serum uric acid; 405 mg fasted, 24 h): 262.8 (65.4) µmol L^–1
Urate (serum uric acid; 405 mg fasted, 48 h): 244.6 (51.2) µmol L^–1
Urate (serum uric acid; 405 mg fasted, 72 h): 256.1 (44.7) µmol L^–1
Urate (serum uric acid; 405 mg fasted, 96 h): 289.3 (46.2) µmol L^–1
Urate (serum uric acid; 405 mg fasted, 120 h): 307.2 (50.9) µmol L^–1
Urate (serum uric acid; 405 mg fasted, follow up): 322.2 (59.1) µmol L^–1
decrease in mean serum uric acid concentration (serum uric acid; 405 mg, 95% CI 58.90, 109.94, mean predose 329.0 (SD 54.2)): 84.42 µmol/L
human plasma protein binding [2]: 65%
inhibition of oxidation of xanthine and uric acid by myeloperoxidase (myeloperoxidase): inhibits
inhibition of URAT1 uric acid transport [3]: does not inhibit
dose at which no adverse effects were observed [4]: 20 mg kg^−1 per day
Any AE ([5]; 5 mg fasted n = 6): 2 (33.3) n (%)
Epistaxis ([5]; 5 mg fasted n = 6): 0 n (%)
Gastroenteritis ([5]; 5 mg fasted n = 6): 0 n (%)
Headache ([5]; 5 mg fasted n = 6): 0 n (%)
Nasopharyngitis ([5]; 5 mg fasted n = 6): 0 n (%)
Oropharyngeal pain ([5]; 5 mg fasted n = 6): 1 (16.7) n (%)
Rash maculopapular ([5]; 5 mg fasted n = 6): 0 n (%)
Restlessness ([5]; 5 mg fasted n = 6): 1 (16.7) n (%)
Rhinitis ([5]; 5 mg fasted n = 6): 0 n (%)
Any AE ([5]; 15 mg fasted n = 6): 2 (33.3) n (%)
Epistaxis ([5]; 15 mg fasted n = 6): 1 (16.7) n (%)
Gastroenteritis ([5]; 15 mg fasted n = 6): 0 n (%)
Headache ([5]; 15 mg fasted n = 6): 1 (16.7) n (%)
Nasopharyngitis ([5]; 15 mg fasted n = 6): 0 n (%)
Oropharyngeal pain ([5]; 15 mg fasted n = 6): 0 n (%)
Rash maculopapular ([5]; 15 mg fasted n = 6): 0 n (%)
Restlessness ([5]; 15 mg fasted n = 6): 0 n (%)
Rhinitis ([5]; 15 mg fasted n = 6): 0 n (%)
Any AE ([5]; 45 mg fasted n = 6): 3 (50.0) n (%)
Epistaxis ([5]; 45 mg fasted n = 6): 0 n (%)
Gastroenteritis ([5]; 45 mg fasted n = 6): 1 (16.7) n (%)
Headache ([5]; 45 mg fasted n = 6): 2 (33.3) n (%)
Nasopharyngitis ([5]; 45 mg fasted n = 6): 0 n (%)
Oropharyngeal pain ([5]; 45 mg fasted n = 6): 0 n (%)
Rash maculopapular ([5]; 45 mg fasted n = 6): 1 (16.7) n (%)
Restlessness ([5]; 45 mg fasted n = 6): 0 n (%)
Rhinitis ([5]; 45 mg fasted n = 6): 0 n (%)
Any AE ([5]; 45 mg fed n = 4): 0 n (%)
Epistaxis ([5]; 45 mg fed n = 4): 0 n (%)
Gastroenteritis ([5]; 45 mg fed n = 4): 0 n (%)
Headache ([5]; 45 mg fed n = 4): 0 n (%)
Nasopharyngitis ([5]; 45 mg fed n = 4): 0 n (%)
Oropharyngeal pain ([5]; 45 mg fed n = 4): 0 n (%)
Rash maculopapular ([5]; 45 mg fed n = 4): 0 n (%)
Restlessness ([5]; 45 mg fed n = 4): 0 n (%)
Rhinitis ([5]; 45 mg fed n = 4): 0 n (%)
Any AE ([5]; 135 mg fasted n = 6): 3 (50.0) n (%)
Epistaxis ([5]; 135 mg fasted n = 6): 0 n (%)
Gastroenteritis ([5]; 135 mg fasted n = 6): 0 n (%)
Headache ([5]; 135 mg fasted n = 6): 1 (16.7) n (%)
Nasopharyngitis ([5]; 135 mg fasted n = 6): 1 (16.7) n (%)
Oropharyngeal pain ([5]; 135 mg fasted n = 6): 0 n (%)
Rash maculopapular ([5]; 135 mg fasted n = 6): 1 (16.7) n (%)
Restlessness ([5]; 135 mg fasted n = 6): 0 n (%)
Rhinitis ([5]; 135 mg fasted n = 6): 0 n (%)
Any AE ([5]; 405 mg fasted n = 6): 2 (33.3) n (%)
Epistaxis ([5]; 405 mg fasted n = 6): 0 n (%)
Gastroenteritis ([5]; 405 mg fasted n = 6): 0 n (%)
Headache ([5]; 405 mg fasted n = 6): 0 n (%)
Nasopharyngitis ([5]; 405 mg fasted n = 6): 0 n (%)
Oropharyngeal pain ([5]; 405 mg fasted n = 6): 1 (16.7) n (%)
Rash maculopapular ([5]; 405 mg fasted n = 6): 2 (33.3) n (%)
Restlessness ([5]; 405 mg fasted n = 6): 0 n (%)
Rhinitis ([5]; 405 mg fasted n = 6): 1 (16.7) n (%)
maculopapular rash (moderate intensity), participants ([5]; all participants receiving AZD4831): 4/30
maculopapular rash (moderate intensity), participants ([5]; all participants receiving AZD4831, n = 30): 13.3%
duration of maculopapular rash ([5]; in vivo): 5 to 9 days
time of report of maculopapular rash after dosing ([5]; in vivo): 7 to 9 days
Any AE ([5]; pooled AZD4831 fasted n = 30): 12 (40.0) n (%)
Epistaxis ([5]; pooled AZD4831 fasted n = 30): 1 (3.3) n (%)
Gastroenteritis ([5]; pooled AZD4831 fasted n = 30): 1 (3.3) n (%)
Headache ([5]; pooled AZD4831 fasted n = 30): 4 (13.3) n (%)
Nasopharyngitis ([5]; pooled AZD4831 fasted n = 30): 1 (3.3) n (%)
Oropharyngeal pain ([5]; pooled AZD4831 fasted n = 30): 2 (6.7) n (%)
Rash maculopapular ([5]; pooled AZD4831 fasted n = 30): 4 (13.3) n (%)
Restlessness ([5]; pooled AZD4831 fasted n = 30): 1 (3.3) n (%)
Rhinitis ([5]; pooled AZD4831 fasted n = 30): 1 (3.3) n (%)
serious AEs or deaths ([5]; whole study): no serious AEs or deaths occurred
